Data taken from patent publication US20060058263A1, “Heat pasturized liquids containing glucosamine” (priority 2002, published 2006).

Assay: Amount of GLCN present following heating (HPAEC-PAD recovery)
Assay type: physicochemical
Experimental: To determine the amount of GLCN that remains following exposing GLCN beverages to a high temperature, such as those used in pasteurization, the following methods were used.
A beverage sample as described in the preceding examples containing […] of GLCN was dispersed in 25 g of 1.0 N HCl in a 50-mL polypropylene centrifuge tube and capped tightly. The sample was mixed for 30 seconds using a vortex mixer, then placed in a water bath at 37° C. The sample was removed from the water bath at 15-minute intervals, mixed for 30 seconds on a vortex mixer, then returned to the water bath. This cycle was repeated until the sample had been in the water bath for one hour.
After heating, the sample was mixed for 30 seconds on a vortex mixer, then centrifuged for 10 minutes to separate the liquid and solid phases. Fats, oils or lipids in the sample formed a third layer at the top of the tube. A 1-g aliquot of the aqueous sample portion was diluted 100-fold with deionized water, then transferred to an autosampler vial with filter cap.
The free glucosamine in prepared samples was determined using high performance anion-exchange chromatography with pulsed amperometric detection ([…]). The system included an EG40 eluent generator, GP50 gradient pump, AS40 autosampler, LC25 column oven, and ED40 electrochemical detector, all produced by Dionex Corporation (Sunnyvale, Calif.).
The method was adapted from Dionex Corporation Technical Note 40. A Dionex CarboPac PA-20 column was used in place of the PA-10 described in the Technical Note. The eluent was 8 mM KOH at 0.5 mL/min. The column and detector were maintained at 30° C. The injection volume was 10 μL. The standard was glucosamine hydrochloride at 10.8 mg/L. Fermentation broth samples were diluted five-fold with deionized water, ASTM Type II, and filtered through 0.2 μ vial filters in the autosampler. Multiple standards were analyzed before and after each sample set.

## N[C@H]1C(O)O[C@H](CO)[C@@H](O)[C@@H]1O (some centres unmarked) [GLCN, glucosamine]
Grape juice, boil, 5 min
  % GlcNHCl Recovered: 102%
Lemonade, 71 ° C., 20 min
  % GlcNHCl Recovered: 101%
Lemonade, 90 ° C., 20 sec
  % GlcNHCl Recovered: 101%
Lemonade, boil, 5 min
  % GlcNHCl Recovered: 100%
Lemonade, room temperature
  % GlcNHCl Recovered: 102%
